Consider five compounds from patent US7547698B2, “Bicyclic heterocyclic derivatives and their use as inhibitors of stearoyl-coadesaturase (SCD)” (Xenon Pharmaceuticals Inc., priority 2004, dated 2009).

The term melting point denotes the temperature of the solid-liquid transition.

The structures appear in SMILES notation.

As for `CCCCCNC(=O)c1cn2nc(N3CCN(C(=O)c4ccccc4C(F)(F)F)CC3)ccc2n1`, the melting point fell in the range of 179 to 180 °C. Compound `CCCCNC(=O)c1cn2nc(N3CCN(C(=O)c4ccccc4C(F)(F)F)CC3)ccc2n1` [Example 1.6, 6-[4-(2-TRIFLUOROMETHYLBENZOYL)PIPERAZIN-1-YL]IMIDAZO[1,2-B]PYRIDAZINE-2-CARBOXYLIC ACID BUTYLAMIDE] gave a melting point of 187 to 189 °C.

In turn, `O=C(Nc1ccc(Cl)cn1)c1cn2nc(N3CCN(C(=O)c4ccccc4C(F)(F)F)CC3)ccc2n1` [Example 1.7, 6-[4-(2-TRIFLUOROMETHYLBENZOYL)PIPERAZIN-1-YL]IMIDAZO[1,2-B]PYRIDAZINE-2-CARBOXYLIC ACID (5-CHLOROPYRIDIN-2-YL)AMIDE] displayed a melting point of 265 to 268 °C.

In the case of `O=C(NCc1ccc(F)cc1)c1cn2nc(N3CCN(C(=O)c4ccccc4C(F)(F)F)CC3)ccc2n1` [Example 1.8, 6-[4-(2-TRIFLUOROMETHYLBENZOYL)PIPERAZIN-1-YL]IMIDAZO[1,2-B]PYRIDAZINE-2-CARBOXYLIC ACID 4-FLUOROBENZYLAMIDE], the melting point was in the range of 205 to 207 °C. For `O=C(Nc1ccc(F)cc1)c1cn2nc(N3CCN(C(=O)c4ccccc4C(F)(F)F)CC3)ccc2n1` [Example 1.9, 6-[4-(2-TRIFLUOROMETHYLBENZOYL)PIPERAZIN-1-YL]-IMIDAZO[1,2-B]PYRIDAZINE-2-CARBOXYLIC ACID (4-FLUOROPHENYL)AMIDE], the melting point lay within 115 to 117 °C.
